Where two headings read alike, the source gives them in different places.
Experiments:
[1] = test system: IL-17 production by CD4+ T cells under conditions which favor Th17 differentiation; experiment: Human Th17 assay (IL-17 production by CD4 T cells); assay type: cell-based; settings: Homo sapiens
Procedure: The human Th17 assay tests the effect of RORγt modulatory compounds on IL-17 production by CD4 T cells under conditions which favor Th17 differentiation. Total CD4^+ T cells were isolated from the peripheral blood mononuclear cells (PBMC) of healthy donors using a CD4^+ T cell isolation kit II, following the manufacturer's instructions (Miltenyi Biotec). […] 50 μL of compound at titrated concentrations in DMSO were added into each well at final DMSO concentration at 0.2%. Cells were incubated for 1 hour, then 50 μL of Th17 cell differentiation medium was added to each well. The final concentrations of antibodies and cytokines (R&D Systems) in differentiation medium were: 3×10^6/mL anti-CD3/CD28 beads (prepared using human T cell activation/expansion kit, Miltenyi Biotec), 10 μg/mL anti-IL4, 10 μg/mL anti-IFNγ, 10 ng/mL IL113, 10 ng/mL IL23, 50 ng/mL IL6, 3 ng/mL TGFβ and 20 U/mL IL2. Cells were cultured at 37° C. and 5% CO2 for 3 days. Supernatants were collected and the accumulated IL-17 in culture was measured by using MULTI-SPOT® Cytokine Plate following manufacture's instruction (Meso Scale Discovery). The plate was read using Sector Imager 6000, and IL-17 concentration was extrapolated from the standard curve. The IC50s were determined by GraphPad.

[2] = target: human RORγt ligand binding domain (RORγt LBD) (Homo sapiens (Human), UniProt P51449); experiment: RORγt ThermoFluor assay (thermal shift, binding affinity Kd)
[3] = target: human RORγt LBD fused to the DNA binding domain of the GAL4 protein (Homo sapiens (Human), UniProt P51449); experiment: RORγt (LBD) reporter assay in HEK293T cells; assay type: cell-based; parameters: RORγt (LBD) Reporter Assay, % inhibition: dose or concentration left out as unconfirmed; settings: for inhibition at 6 µM: HEK-293T, read-out: RORγt (LBD) Reporter Assay, % inhibition @ 6 μM, @ 6 μM
Sequence of human RORγt LBD fused to the DNA binding domain of the GAL4 protein (P51449 258-518): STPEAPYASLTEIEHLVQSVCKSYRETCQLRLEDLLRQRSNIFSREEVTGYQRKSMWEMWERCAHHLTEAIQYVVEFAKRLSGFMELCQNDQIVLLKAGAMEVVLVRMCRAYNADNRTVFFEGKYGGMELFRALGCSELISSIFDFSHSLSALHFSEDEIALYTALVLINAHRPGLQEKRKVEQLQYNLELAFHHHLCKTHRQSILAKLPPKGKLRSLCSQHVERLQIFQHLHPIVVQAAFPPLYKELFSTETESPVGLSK

[4] = read-out: ThermoFluor Assay, Kd
[5] = read-out: ThermoFluor ® Assay, Kd

Sequence of human RORγt ligand binding domain (RORγt LBD) (P51449 other isoform, or with tags, fused parts or gaps): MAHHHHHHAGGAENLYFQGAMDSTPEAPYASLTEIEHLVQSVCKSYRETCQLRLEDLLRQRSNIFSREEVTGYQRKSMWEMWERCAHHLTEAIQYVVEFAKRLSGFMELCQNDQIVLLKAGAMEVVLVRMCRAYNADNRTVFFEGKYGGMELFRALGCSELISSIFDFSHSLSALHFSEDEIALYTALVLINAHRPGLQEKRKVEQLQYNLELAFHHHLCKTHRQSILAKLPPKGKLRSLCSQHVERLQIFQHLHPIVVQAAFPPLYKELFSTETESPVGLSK

Row | SMILES | IC50 [1] | IC50 [3] | also measured
1 | COc1nc2ccc(C(O)(c3ccccc3)C3CCN(C(C)=O)CC3)cc2c(Cl)c1C1CCOCC1 (single isomer, unassigned) [Example 7b, 1-(4-((4-Chloro-2-methoxy-3-(tetrahydro-2H-pyran-4-yl)quinolin-6-yl)(hydroxy)(phenyl)methyl)piperidin-1-yl)ethanone] | 210 nM |  | 
2 | COc1nc2ccc(C(O)(c3sc(C)nc3C)c3cnnn3C)cc2c(Cl)c1C (single isomer, unassigned) [Example 13c, (4-Chloro-2-methoxy-3-methylquinolin-6-yl)(2,4-dimethylthiazol-5-yl)(1-methyl-1H-1,2,3-triazol-5-yl)methanol] | 65 nM |  | 
3 | Cc1nc(C)c(C(O)(c2ccc3nc(N4CCC4)c(OC(C)C)c(Cl)c3c2)c2cnnn2C)s1 (single isomer, unassigned) [Example 82c, [2-Azetidin-1-yl-4-chloro-3-(1-methylethoxy)quinolin-6-yl](2,4-dimethyl-1,3-thiazol-5-yl)(1-methyl-1H-1,2,3-triazol-5-yl)methanol] | 1.2 nM |  | 
4 | COc1nc2ccc(C(O)(c3ccccc3)C3CCN(C(C)=O)CC3)cc2c(Cl)c1OC(C)C (single isomer, unassigned) [Example 84b, (1-Acetylpiperidin-4-yl)[4-chloro-2-methoxy-3-(1-methylethoxy)quinolin-6-yl]phenylmethanol] | 5.4 nM |  | 
5 | COc1nc2ccc(C(O)(c3ccc(Cl)cc3)c3cncn3C)cc2c(Cl)c1OCC(F)(F)F (single isomer, unassigned) [Example 86c, [4-Chloro-2-methoxy-3-(2,2,2-trifluoroethoxy)quinolin-6-yl](4-chlorophenyl)(1-methyl-1H-imidazol-5-yl)methanol] | 21 nM |  | 
6 | Cn1cncc1C(O)(c1ccc(C(F)(F)F)nc1)c1ccc2nc(N3CCC3)c(OCC3CC3)c(Cl)c2c1 (single isomer, unassigned) [Example 87c, [2-Azetidin-1-yl-4-chloro-3-(cyclopropylmethoxy)quinolin-6-yl](1-methyl-1H-imidazol-5-yl)[6-(trifluoromethyl)pyridin-3-yl]methanol] | 120 nM |  | 
7 | COc1nc2ccc(C(O)(c3ccc(C)nc3C)c3cnnn3C)cc2c(Cl)c1OCCS(C)(=O)=O (stereo not drawn) [Example 70a, {4-Chloro-2-methoxy-3-[2-(methylsulfonyl)ethoxy]quinolin-6-yl}(2,6-dimethylpyridin-3-yl)(1-methyl-1H-1,2,3-triazol-5-yl)methanol] |  | > 6000 nM | Kd [2, 4]: 3300 nM; inhibition at 6 µM [3]: 36%
8 | COc1nc2ccc(C(O)(c3cnc(C)n3C)c3cnc(C)n3C)cc2c(Cl)c1OCc1ccccc1 [Example 75, [3-(benzyloxy)-4-chloro-2-methoxyquinolin-6-yl][bis(1,2-dimethyl-1H-imidazol-5-yl)]methanol] |  | > 6000 nM | Kd [2, 4]: 9 nM; inhibition at 6 µM [3]: -1%
9 | COc1nc2ccc(C(O)c3cnc(C)n3C)cc2c(Cl)c1OC(C)C (stereo not drawn) [Example 156, (4-chloro-3-isopropoxy-2-methoxyquinolin-6-yl)(1,2-dimethyl-1H-imidazol-5-yl)methanol] |  | > 6000 nM | Kd [2, 5]: 3400 nM; RORγt (LBD) Reporter Assay, % inhibition [3]: 34%
10 | Cc1ncc(C(O)c2ccc3nc(Cl)c(OC(C)C)c(Cl)c3c2)n1C (stereo not drawn) [Example 172, (2,4-dichloro-3-isopropoxyquinolin-6-yl)(1,2-dimethyl-1H-imidazol-5-yl)methanol] |  | > 6000 nM | Kd [2, 5]: 12000 nM; RORγt (LBD) Reporter Assay, % inhibition [3]: 12%
11 | Cc1ccc(C(O)(c2ccc3nc(Cl)c(CC(F)(F)F)c(N4CCC4)c3c2)c2cnnn2C)c(C)n1 (stereo not drawn) [Example 238a, [4-(Azetidin-1-yl)-2-chloro-3-(2,2,2-trifluoroethyl)-6-quinolyl]-(2,6-dimethyl-3-pyridyl)-(3-methyltriazol-4-yl)methanol] |  | > 6000 nM | Kd [2, 5]: > 24000 nM; RORγt (LBD) Reporter Assay, % inhibition [3]: −8%

Reference: patent US10201546B2, “Quinolinyl modulators of RORγt” (Janssen Pharmaceutica NV, priority 2013, dated 2019)
